{"source": "patent US5364944A", "about": "“Substituted benzoylbenzene-, biphenyl- and 2-oxazole- alkanoic acid compounds” (American Home Products Corporation, priority 1993, dated 1994)", "system": "5-lipoxygenase in human whole blood", "assay": "Inhibition of 5-lipoxygenase in human whole blood (LTB4)", "assay_type": "cell-based", "description": "The assay of this Example measures the ability of the compounds tested to inhibit 5-lipoxygenase in human whole blood.\nThis assay is carried out as follows:\nBlood is obtained in 50-100 ml quantities from male donors. White blood cell counts and differentials are made. Two ml of blood are placed in a 15 ml polypropylene test tube. Compounds are solubilized in dimethylsulfoxide and diluted 1:10 in 10% bovine serum albumin in phosphate buffered saline, pH 7.4 resulting in a final dimethylsulfoxide concentration of 0.1% in the blood. Then, compounds are added to the blood in a shaking water bath at 37° C. for 10 minutes prior to the addition of 30 μM calcium ionophore (A23187; Sigma). After ionophore administration, whole blood samples are mixed and incubated for 20 minutes at […] in a shaking water bath. Incubation is terminated by placing samples in an ice bath and immediately adding ethylene glycol-bis-(β-aminoethyl ether)-N,N,N',N'-tetraacetic acid (10 mM). Samples are mixed and centrifuged at 1200×g for 15 minutes at 4° C. Preparation of samples for evaluation by RIA or ELISA is carried out by the following protocol. Plasma is removed from sample tubes, placed in 15 ml polypropylene test tubes containing 8 ml methanol, and then vortexed to precipitate protein. Samples are stored at -70° C. overnight. The next day, samples are centrifuged at 200×g for 15 minutes at 4° C. to pellet the precipitate. Samples are dried in a Savant speed vac concentrator, reconstituted to original volume with ice cold RIA or ELISA buffer, and stored at -70° C. until assayed. The assay for eicosanoids (LTB4, TxB2, and PGE2) is performed as described by the manufacturer of the [^3 H]-RIA kit or ELISA kit (LTB4 -Amersham, TxB2 and PGE2 - Caymen Chemical).\nThe total eicosanoid level in 2 ml of blood is calculated and reported as ng/10^6 neutrophils. […] Drug effects are expressed as percent change from control values.\nCompounds tested in vitro are solubilized in dimethylsulfoxide and diluted 1:10 in 10% bovine serum albumin in phosphate buffer saline resulting in a final dimethylsulfoxide concentration of 0.1% in the blood.", "note": "pIC50: −log10 of the molar value. Structures can show the parent of a compound that is named as a salt."}
{"smiles": "CN(O)C(=O)Cc1ccc(-c2ccc(OCc3csc(-c4ccccc4)n3)cc2)cc1", "note": "[Example 19, N-Hydroxy-N-methyl-4'-[(2-phenylthiazol-4-yl)methoxy][1,1'-biphenyl]-4-acetamide, sodium salt, sesquihydrate]", "values": [{"measurement": "% Inhibition of LTB4", "setting": "at 25 μM, sodium salt, sesquihydrate", "value": 83, "unit": "%"}]}
{"smiles": "CN(O)C(=O)Cc1ccc(-c2ccc(OCc3csc(-c4ccccc4)n3)cc2)c(F)c1", "note": "[Example 27]", "values": [{"measurement": "pIC50", "value": 5.89}, {"measurement": "% Inhibition of LTB4", "setting": "at 25 μM", "value": 69, "unit": "%"}]}
{"smiles": "CN(O)C(=O)Cc1ccc(-c2ccc(OCc3ccc4ccccc4n3)cc2)c(F)c1", "note": "[Example 8, N-Hydroxy-N-methyl-2-fluoro-4'-(2-quinolinylmethoxy)-[1,1'-biphenyl]-4-acetamide]", "values": [{"measurement": "pIC50", "value": 6.28}, {"measurement": "% Inhibition of LTB4", "setting": "at 25 μM", "value": 94, "unit": "%"}]}
{"smiles": "CC(c1ccc(-c2ccc(OCc3nc4ccccc4s3)cc2)c(F)c1)N(O)C(N)=O", "note": "(stereo not drawn) [Example 40, 1-{1-[4'-(Benzothiazol-2-ylmethoxy)-2-fluoro(1,1'-biphenyl)-4-yl]ethyl}-1-hydroxy-urea]", "values": [{"measurement": "% Inhibition of LTB4", "setting": "at 10 μM", "value": 47, "unit": "%"}]}
{"smiles": "CC(=O)N(O)C(C)c1ccc(-c2ccc(OCc3nc4ccccc4o3)cc2)cc1", "note": "(stereo not drawn) [Example 36, N-{1-[4'-(Benzoxazol-2-ylmethoxy)-biphenyl-4-yl]ethyl}-N-hydroxy-acetamide]", "values": [{"measurement": "% Inhibition of LTB4", "setting": "at 10 μM", "value": 77, "unit": "%"}]}
{"smiles": "CC(=O)N(O)C(C)c1ccc(-c2ccc(OCc3csc(-c4ccccc4)n3)cc2)cc1", "note": "(stereo not drawn) [Example 39, N-{1-[4'-(2-Phenylthiazol-4-ylmethoxy)-biphenyl-4-yl]-ethyl}-N-hydroxy-acetamide]", "values": [{"measurement": "% Inhibition of LTB4", "setting": "at 10 μM", "value": 43, "unit": "%"}]}
{"smiles": "CC(c1ccc(-c2ccc(OCc3csc(-c4ccccc4)n3)cc2)cc1)N(O)C(N)=O", "note": "(stereo not drawn) [Example 38, 1-{1-[4'-(2-Phenylthiazol-4-ylmethoxy)-biphenyl4-yl]-ethyl}-1-hydroxy-urea]", "values": [{"measurement": "% Inhibition of LTB4", "setting": "at 10 μM", "value": 46, "unit": "%"}]}
